In brackets after ≈: the same amount, converted by molar mass. Entries after “also recorded” stand apart in the source; their conditions may differ. Where two headings read alike, the source gives them in different places.
Assays:
[1] = Solubility in phosphate buffer at various pH values; format: physicochemical; conditions: shaken 10 min; for solubility at 10 min: aqueous buffer, thermodynamic from solid
Method: An amount of the dabigatran amidoxime succinic acid ester (1) which is insoluble in 150 μl was dissolved in 50 mM of a phosphate buffer (pH 6.3, pH 7.4, respectively pH 9.0) and shaken for 10 min. Solubility was not determined at the 4.0 and 2.0 pH values due to the rapid hydrolysis of the succinyl ester at acidic pH values. 3 N HCl, respectively 10% KOH, was used to adjust the pH value. After the 10 min period, the undissolved portion was removed by centrifugation (13,000 RPM, 10 min) and the samples were immediately measured by HPLC. The evaluation of the solubility ensued via a calibration of dabigatran amidoxime succinic acid ester (1) (Table 1). Dabigatran etexilate and dabigatran amidoxime (2) were examined by comparison so as to be able to better judge the solubility as compared to previously described derivatives. Solubilities were determined analogously to the method described for compound (1).

[2] = molecular target: albumin (Homo sapiens, UniProt P02768); assay: Plasma protein binding (4% albumin solution, ultrafiltration); format: in vitro ADME; conditions: 10, 25 and 50 μM, 15 min at 37° C.
Sequence of albumin (P02768 25-609, species assumed): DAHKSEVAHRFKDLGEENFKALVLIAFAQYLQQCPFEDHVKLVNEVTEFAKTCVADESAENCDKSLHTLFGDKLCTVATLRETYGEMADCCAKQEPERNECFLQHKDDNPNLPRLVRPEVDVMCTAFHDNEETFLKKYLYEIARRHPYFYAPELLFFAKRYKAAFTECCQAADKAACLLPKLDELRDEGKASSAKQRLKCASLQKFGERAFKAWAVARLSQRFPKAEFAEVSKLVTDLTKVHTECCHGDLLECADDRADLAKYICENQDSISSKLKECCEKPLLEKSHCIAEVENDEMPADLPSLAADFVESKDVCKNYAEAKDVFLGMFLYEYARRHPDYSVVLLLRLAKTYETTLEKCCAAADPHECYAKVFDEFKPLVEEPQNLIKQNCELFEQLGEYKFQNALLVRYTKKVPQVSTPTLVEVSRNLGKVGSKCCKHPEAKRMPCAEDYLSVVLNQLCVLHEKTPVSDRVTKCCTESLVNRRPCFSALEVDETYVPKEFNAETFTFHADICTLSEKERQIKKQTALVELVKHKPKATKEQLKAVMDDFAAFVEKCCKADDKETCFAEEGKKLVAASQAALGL
Method: The plasma protein binding was determined at three different concentrations (10, 25, and 50 μM). A 4% albumin solution was used as the protein solutions. 50 μl of a 10 times concentrated substance solution were in each case pipetted to 450 μl of the protein solution. Incubation ensued over 15 min in a shaking water bath at 37° C. Subsequently, the samples were transferred into ultrafiltration units (Vivaspin 500, 10 kDa cut off) and centrifuged for 15 min at 10,000 RPM. The filtrate was analyzed by HPLC. Additionally, a control which was not mixed with protein nor centrifuged was carried out for each concentration. A further control without protein addition which, however, was centrifuged by the filtration unit served to validate the methodology.

[3] = parameters: species or system rats; conditions: rat, in vivo
Method: Dabigatran was administered intravenously to 20 rats in a concentration of 10 mg/kg. Dabigatran amidoxime succinic acid ester (1), dabigatran amidoxime (2), and dabigatran etexilate were administered to 10 rats each in a concentration of 50 mg/kg as a suspension with Arabic gum (10% m/V) per gavage. 100 mM of potassium phosphate buffer of pH 9.0 was used with the dabigatran amidoxime succinic acid ester (1) in preparing the suspension so as to prevent premature cleavage of the succinyl ester in the acidic environment of the stomach. In addition, 3 rats were given dabigatran at a dosage of 50 mg/kg per gavage in order to determine the oral bioavailability of the active form itself.
After the intravenous administration, plasma samples were taken after 5, 10, 25, 50, 100, 200, and 400 min, respectively 30, 60, 90, 120, 240, 360, and 480 min after oral administration. For this purpose, 300 μl of whole blood was drawn using an insulin syringe and transferred into EDTA-coated CB 300 microvettes (Sarstedt, Nümbrecht). After each withdrawal, the sample was rinsed with 100 μl of 0.9% saline solution respectively with heparin solution (250 I.E./ml) at an interval of 60 min. The blood sample was briefly shaken and placed on ice until centrifugation (4° C.; 14,000 RPM; 10 min). The samples were stored further at −80° C.
The plasma samples were defrosted at room temperature. 5 μl of 1N HCl was prepared in each case and 55 μl of the plasma samples added by pipetting. The samples were subsequently shaken for 45 min in order to cleave the existing glucuronides. The plasma proteins were then precipitated with 55 μl of methanol and shaken for a further 30 min. The samples were centrifuged at 10,000 RPM for 15 min and the supernatant was transferred into HPLC vials. 10 μl was used in each case for the HPCL determinations.
Calibrations and analyses for recovering the dabigatran were performed in a phosphate buffer of pH 7.4, murine plasma respectively, so as to quantitatively evaluate the plasma samples.
The bioavailability of the different dabigatran prodrugs was calculated by means of the PK Solutions 2.0™ program using the plasma concentrations. Furthermore, the plasma half-life t1/2, the time of maximum plasma level tmax, as well as the maximum plasma concentration cmax were calculated.

[4] = Stability analysis at various pH values (phosphate buffer, HPLC); format: physicochemical; conditions: acidic medium (<pH 6)
Method: A 0.2 mM solution of dabigatran amidoxime succinic acid ester (1) was prepared in 50 mM of a potassium phosphate buffer for the stability analyses. The examination took place at pH values of 2.0, 4.0, 6.3, 7.4 and 9.0. One sample was taken and immediately analyzed by HPLC every 30 min over a period of 360 min.

[5] = Stability (ester hydrolysis) in human plasma; format: in vitro ADME; conditions: 0.2 mM, 37° C., up to 150 min, listed as dabigatran amidoxime succinic acid ester (1)
Method: (§1) Further analyses were conducted with human and murine plasma. 900 μl of the plasma was mixed with 100 μl of a 2 mM solution of dabigatran amidoxime succinic acid ester (1). The final concentration of dabigatran amidoxime succinic acid ester (1) was thus 0.2 mM. The samples were incubated at 37° C. in a shaking water bath and samples were taken after 0, 15, 30, 45, 60, 90, 120 and 150 min. For this purpose, 100 μl was drawn in each case and mixed with 100 μl acetonitrile. The samples were shaken, centrifuged for 5 min and the supernatant was measured via HPLC. The results are illustrated in FIGS. 2 and 3.

[6] = Stability (ester hydrolysis) in murine plasma; format: in vitro ADME; conditions: 0.2 mM, 37° C., up to 150 min, listed as dabigatran amidoxime succinic acid ester (1)
Method: as §1

[7] = Dabigatran in organ samples (liver and kidney) after oral administration; format: in vivo; conditions: rats, oral 50 mg/kg, 8 hours after administration
Method: Slaughter ensued by guillotine decapitation 8 hours after the drug administration. The organs were subsequently removed. All organs were cleaned and frozen in 2-methylbutane cooled in dry ice. Liver, kidney, lung, spleen, heart, and brain were removed.
The organs were defrosted at room temperature and weighed. Depending on the respective organ, differing amounts of the tissues were prepared. About 1000 mg were used in case of the liver samples; about 500 mg in case of the kidney samples. Liver and kidney were examined since both organs participate in the activation of the prodrug and increased concentrations of dabigatran can therefore occur in same. Other organs are irrelevant for the bioactivation and were therefore not examined.
The organ samples (liver and kidney) were minced by means of a potter. For this purpose, each of the weighed tissues were minced with 1 ml aqua bidest for 5 min. The potter vessel was subsequently rinsed in each case with 1 ml of aqua bidest. The samples were transferred into reaction vessels and the same volume of acetonitrile was added in order to precipitate proteins. The samples were shaken for 45 min and subsequently centrifuged at 12,000 RPM for 15 min. […]
The solubilizing of the samples ensued with 400 μl of a mixture of methanol/aqua bidest (50/50). […] The concentration of dabigatran was determined from the supernatant by means of HPLC.

[8] = Solubility in phosphate buffer at various pH values; format: physicochemical; conditions: pH 2.0, preliminary test runs
[9] = etexilate data from the literature; cited from earlier work

bioavailability [3] | Cmax ([3]; po, 50 mg/kg) [nM] | maximum plasma concentrations (range) ([3]; po, 50 mg/kg) [µM] | period of detectable dabigatran plasma levels ([3]; po, 50 mg/kg) [min] | prodrug itself in plasma ([3]; po, 50 mg/kg) | t1/2 ([3]; po, 50 mg/kg) | time at which maximum plasma concentrations were reached (range) ([3]; po, 50 mg/kg) [min] | tmax ([3]; po, 50 mg/kg) | solubility at 10 min ([1]; pH 6.3, 50 mM phosphate buffer) [µM] | solubility at 10 min ([1]; pH 7.4, 50 mM phosphate buffer) [µM] | solubility at 10 min ([1]; pH 9.0, 50 mM phosphate buffer) [µM] | Compound | other results
4.1 ± 1.4 % | 2760 ± 1060 | 1.7 to 5.5 | 480 | could not be identified | 108.1 ± 56.2^+ min | 30 to 60 | 36.0 ± 12.6 min |  |  |  | Cn1c(CNc2ccc(C(N)=NO)cc2)nc2cc(C(=O)N(CCC(=O)O)c3ccccn3)ccc21 [Dabigatran amidoxime (2)] | solubility ([1]; pH 6.3, 50 mM phosphate buffer): 145 ± 16 µM (≈ 70.7 µg/mL); solubility ([1]; pH 7.4, 50 mM phosphate buffer): 119 ± 5 µM (≈ 58 µg/mL); solubility ([1]; pH 9.0, 50 mM phosphate buffer): 111 ± 8 µM (≈ 54.1 µg/mL); plasma protein binding [2]: 31.2±1.3%
 | 240 ± 130 |  |  |  | 58.0 ± 31.1^+ min |  | 105.0 ± 21.2 min |  |  |  | [H]/N=C(/N)c1ccc(NCc2nc3cc(C(=O)N(CCC(=O)O)c4ccccn4)ccc3n2C)cc1 [Dabigatran] | period of detectable plasma levels ([3]; iv, 10 mg/kg): 400 min; bioavailability ([3]; po, 50 mg/kg): 0.3 ± 0.2 %
5.5%±1.7% | 2770 ± 550 | 1.8 to 3.7 | 480 | could not be identified | 69.3 ± 30.4^+ min | 30 to 60 | 48.0 ± 15.5^+ min | 630 ± 290 (≈ 388 µg/mL) | 4620 ± 830 (≈ 2840 µg/mL) | 8160 ± 440 (≈ 5020 µg/mL) | CCOC(=O)CCN(C(=O)c1ccc2c(c1)nc(CNc1ccc(/C(N)=N/OC(=O)CCC(=O)O)cc1)n2C)c1ccccn1 | stability in acidic medium [4]: rather instable; hydrolysis of the ester bond in plasma [5]: pronounced hydrolysis of the ester bond; also recorded: very marked ester cleavage; hydrolysis of the ester bond in plasma [6]: pronounced hydrolysis of the ester bond; also recorded: very marked ester cleavage; fraction unbound at 15 min [2]: ~0.78; plasma protein binding ([2]; listed as dabigatran amidoxime succinic acid ester (1)): 21.8±5.3%; dabigatran concentration in liver samples compared to other prodrugs [7]: clearly lower; dabigatran detected in liver and kidney [7]: small amounts; solubility in acidic medium [8]: good solubility
7.2%±2.0% | 3480 ± 640 | 2.3 to 4.5 | 480 | could not be identified | 87.7 ± 27.5 min | 30 to 90 | 57.0 ± 22.1 min | 3.6 ± 2 (≈ 2.26 µg/mL) | 0.6 ± 0.4 (≈ 0.377 µg/mL) | 0.4 ± 0.1 (≈ 0.251 µg/mL) | CCCCCCOC(=O)NC(=N)c1ccc(NCc2nc3cc(C(=O)N(CCC(=O)OCC)c4ccccn4)ccc3n2C)cc1 [Dabigatran etexilate] | bioavailability described in the literature [9]: 5-8%
